The numbers were not newly measured in patent US20250255842A1, “S[…]-RESOLVING LIPID MEDIATORS FOR TREATING LONG COVID-19” (Solutex GC, S.L., priority 2022, published 2025), which cites them from elsewhere.

This series relates to thrombus. As to conditions: administration of RvD4; less neutrophil infiltration, more pro-resolving monocytes.

`CC/C=C\C[C@H](O)/C=C/C=C\C\C=C/C=C/C=C/[C@@H](O)[C@@H](O)CCC(=O)O` [RvD4, 4S,5R,17S-trihydroxy-6E,8E,10Z,13Z,15E,19Z-docosahexaenoic acid]: the Thrombus burden result is reported as “significantly reduced”.
